Where two headings read alike, the source gives them in different places.

Test [1] concerns hippocampal kindled seizure. The note with it: ip; cited from earlier work.
The subject of test [2] is subcutaneous Metrazol (scMet) seizure. The note with it: 10−13; cited from earlier work.
Test [3] relates to Na+ channels in CAD cells. Put plainly: frequency. The class given is cell-based, mouse. The conditions noted are these: 500 μM (Figure 9 legend: concentrations greater than 500 μM).
For test [4], the system named is Na+ channels in CAD cells. The conditions noted are these: 100 μM; cited from earlier work.
For test [5], the system named is Na+ channels in CAD cells. The note with it: cited from earlier work.

On to `COC[C@@H](NC(C)=O)C(=O)NCc1ccccc1` [(R)-1, (R)-N-Benzyl 2-acetamido-3-methoxypropionamide], for which the “ED50, rat hippocampal seizure model” value in test [1] is listed as 14 mg/kg. For the same compound, the “activity in the scMet model” value in test [2] is recorded as “no activity”. For the same compound, the “frequency (use) inhibition of Na+ currents” value was “significant inhibition of use-dependence” in test [3] and “not observed notable frequency (use) inhibition of Na^+ currents” in test [4]. The “effect on Na+ channel fast inactivation” value in test [5] is listed as “did not affect Na^+ channel fast inactivation”.
